Source: US5162361A, “Method of treating diseases associated with elevated levels of interleukin 1” (priority 1990, dated 1992)

Columns and labels:
[1] = test system: IL-1α mRNA; assay: Northern blot analysis of IL-1α mRNA expression; format: cell-based, rat; conditions: 1 μM dexamethasone, LPS, 3 h, FIG. 2
Procedure: Specific transcription of IL-1α mRNA synthesis was assessed by incubating cells with and without 10 μM pentamidine or 1 μM of the corticosteroid, dexamethasone in the presence or absence of lipopolysaccharide (LPS). At the end of a 3 hour incubation period, the cells were lysed and the total cellular RNA was collected, blotted onto a nitrocellulose filter and probed with ^32 P-labeled IL-1α cDNA. […] In contrast, mRNA for IL-1α was not seen in dexamethasone treated cells.
For determination of IL-1 mRNA levels, cells (4×10^6) were cultured with or without pentamidine (10 μM) or dexamethasone (1 μM) in media with 10% FCS in the presence or absence of LPS (1 μg/ml) for 3 hours. Total cellular RNA was isolated by quanidinium-thiocyanate phenolchloroform extraction (P. Chomczynski et al., Anal. Bioch. 162, 156 (1987)). RNA (10 μg) was electrophoresed in 1.2% agarose gels as previously described (H. Leharch et al., Biochemistry 4743 (1977)). […] Hybridizing species were detected by autoradiography at -70° C., using Kodak XAR film with an intensifying screen. The total RNA levels per lane on the gel was assessed by monitoring 28S and 18S, and expression of α-tubulin mRNA. Accumulation of α-tubulin mRNA was determined by probing the same blot with ^32 P labeled 30 mer oligonucleotide (Du Pont).

[2] = test system: Ia antigen; assay: Ia antigen expression on alveolar macrophages (flow cytometry); format: cell-based, rat
Procedure: ^a Ia antigen expression - Alveolar macrophages were diluted to 1×10^6 cells/ml in RPMI (supplemented as above). Three mls. (3×10^6 cells) were added to sterile teflon vials and treated with pentamidine or dexamethasone for 4 hours at 37° C., 5% CO2, followed by the addition of rat γ IFN at 100 U/ml. Cells were incubated for 18 hours, pelleted, counted and adjusted to 1×10^7 cells/ml in ice cold standard buffer (HBSS, 0.1% Na azide, 1% BSA).
Aliquots of cells (50 μl in quadruplicate) from the various treatment groups were plated to a 96 well round bottom plate (Linbro) and incubated for 45 minutes on ice with 50 μl aliquots of one of the following: monoclonal anti-rat OXS (Sera-lab), monoclonal anti-mouse OX6 (Sera-lab), both at 0.5 μg/5×10^5 cells, or HBSS (control). Cells were washed 3× with standard buffer and incubated for 45 minutes on ice, in the dark, with 50 μl of phycoerythrin-labeled goat anti-mouse IGGI (Fisher Biotech) at 1 μg/5×10^5 cells. Cells were washed 3× with standard buffer, resuspended in 0.4 ml of standard buffer and analyzed via flow cytometry.

[3] = test system: IL-1α; assay: Western blot analysis of cell associated IL-1α; format: cell-based, rat; conditions: 1 μM dexamethasone, LPS, 24 h, FIG. 3
Procedure: To determine the effect of pentamidine on cellular stores of IL-1, intracellular levels of IL-1 were quantitated by incubating cells with and without 10 μM pentamidine and LPS for 24 hours. At the end of this incubation period, the cells were washed, lysed and the total cellular protein was collected for Western blot analysis. […] This is in agreement with the generally accepted existence of a precursor form of IL-1 with a molecular weight in the range of 31-33 kD (J. Giri et al., J. Immunol. 134, 343 (1985)).
Cells (4×10^6 cells) were oultured with pentamidine (10μM) or dexamethasone (1μM) in media with 10% fetal calf serum (FCS) in the presence or absence of LPS (1 μg/ml) for 24 hours. The cells were washed twice in HBSS and then scraped in homogenizing buffer (HBSS containing 0.1 mM EGTA, 1 mM pmsf, 10 μg/ml leupeptin, 1 KIU/ml aprotinin, pH 7.4). The cell suspension was left on ice for 10 minutes at which time the swollen cells were disrupted by sonication. The nuclei and undisrupted cells were pelleted by centrifugation at 800 rpm for 10 minutes and were discarded. The supernatant was centrifugated at 39,000 rpm for 1 hour at 4° C. After centrifugation, the supernatants containing cytosolic components of the cell was carefully removed and was used as the cytosol fraction. […] Molecular weight references were determined by running one lane with pre-stained molecular weight standards.

[4] = test system: Pulmonary alveolar macrophages; assay: Phagocytosis by pulmonary alveolar macrophages (Fluoresbrite beads, flow cytometry); format: cell-based, rat
Procedure: One ml aliquots were added to sterile teflon vials (Nalgene) along with pentamidine or dexamethasone (Sigma) as indicated, and incubated for 4 hours at 37° C., 5% CO2. Fluoresbrite carboxylate beads, 1.73 μm (Polysciences) were used to achieve a 100:1 bead to cell ratio and the suspension was incubated for 45 minutes at 37° C., 5% CO2 with gentle agitation. Cell suspensions were then layered over 3 mls. of RPMI/FCS+0.3% BSA, and cells pelleted at 150 xg for 10 minutes. Supernates were discarded and cells resuspended in 1 ml of RPMI/FCS for analysis via flow cytometry. The data presented above is the mean of the percentage of cells taking up one or more beads of triplicate cultures.

[5] = test system: IL-1; assay: IL-1 release from alveolar macrophages (thymocyte co-stimulation bioassay); format: cell-based, rat; conditions: for Effect on IL-1: LPS, 24 h, FIG. 7
Procedure: Pulmonary alveolar macrophages were collected by lavaging the lungs as previously described (D. B. Warheit et al., Am. Rev. Resp. Dis. 134, 128 (1986)). Once washed and resuspended, the macrophages were allowed to adhere to plastic plates in serum free RPMI 1640 containing 25 mM Hepes, 2 mM L-glutamine, 50 μg/ml gentamicin and streptomycin (media). Following adherence for 1 hour at 37° C. in 5% CO2, the plates were washed once with warm media to remove nonadherent cells, cells were resuspended in media with 10% FCS and treated with or without pentamidine at the indicated concentration and LPS (5 ng/ml) for 24 hours). IL-1 activity was assayed using a thymocyte co-stimulation assay (S. B. Mizel in Methods in Macrophage Biology, Editors, Herscowitz and Holden (1981)). Single cell thymocyte suspension from B6C3F1 mice (female, 5-9 weeks old) at a concentration of 2.0×10^7 /ml in media containing 10% FCS, and 2.5×10^-5 M 2-β mercaptoethanol were added in 50 μl aliquots to each well of flat bottom microtiter plates along with 50 μl of PHA at 2.5 μg/ml. Serial dilution of supernatants or cells were made in media with 10% FCS and added in 100 μl aliquots. IL-1 activity was measured by quantifying the uptake of 3Hthymidine during the last 6 hours of a 72 hour culture at 37° C. and 5% CO2. Cells were harvested onto glass fiber filters and filter associated radioactivity counted in a scintillation counter.
(§1) In vitro studies were performed by taking alveolar macrophages from normal healthy rat lungs and culturing them in the presence of an imidazoline with the inducer lipopolysaccharide for 24 hours. The standard bioassay for IL-1 was performed (see above).

[6] = test system: tumor necrosis factor; assay: Tumor necrosis factor secretion by rat macrophages; format: cell-based
Procedure: It has also been observed that pentamidine (10^-5 M) blocks the secretion of tumor necrosis factor in rat macrophages (42 units/ml - pentamidine vs. 82 units/ml - control), as well as tumor necrosis factor and IL-6 in human macrophages, where at a concentration of 10^-5 M pentamidine, tumor necrosis factor and IL-6 secretion are suppressed >50%. These additional cytokines are also very influential mediators in inflammatory diseases.
as §1

[7] = test system: IL-1; assay: Western blot analysis of IL-1 on cellular protein from imidazoline treated cells; format: cell-based, rat
Description: In addition, Western blot analysis of IL-1 on cellular protein derived from imidazoline treated cells was recently performed. This method definitively identifies the presence or absence of the protein using electrophoretic techniques to separate by molecular weight IL-1 from other proteins followed by staining with specific antibody fog IL-1.

[8] = test system: rat macrophages; assay: In vitro toxicity to the cell (LD50); format: cell-based; conditions: imidazoline, summary statement; compared with pentamidine
[9] = In vitro toxicity to the cell (LD50); format: cell-based; conditions: rat macrophages

Structure (SMILES) | IL-1α mRNA expression [1] | Ia Antigen Expression (MFI) ([2]; Dexamethasone 10^-6 M (control 459), p < 0.025 vs. control) | Mean concentration of Ia molecules on Ia positive cells ([2]; result in words) | Cell associated IL-1α (Western blot) [3] | Phagocytic Index ([4]; Dexamethasone 10^-6 M (control 32), p < 0.025 vs. control) [%] | Phagocytic capacity of alveolar macrophages ([4]; result in words) | Effect on IL-1 ([5]; imidazoline 10^-6 M, 10^-5 M and 10^-4 M) | Effect on IL-1 ([5]; imidazoline 10^-8 M) | Block of IL-1 in rat macrophages ([5]; imidazoline, summary statement) | Tumor Necrosis Factor ([6]; 10^-5 M Imidazoline, LPS, 24 h (control 83 ± 11)) [units/ml] | Block of tumor necrosis factor in rat macrophages ([6]; imidazoline, summary statement) | Block of IL-1 secretion (Western blot) [7] | Toxicity to the cell [8] | CC50 [9] [µM]
C[C@@H]1C[C@H]2[C@@H]3CCC4=CC(=O)C=C[C@]4(C)[C@@]3(F)[C@@H](O)C[C@]2(C)[C@@]1(O)C(=O)CO [Dexamethasone] | not seen | 253 | clearly demonstrated its broad immunosuppressive action on these two macrophage functions | did not express the precursor from of IL-1α | 25 | clearly demonstrated its broad immunosuppressive action on these two macrophage functions |  |  |  |  |  |  |  | 
c1cc(C2=NCCN2)ccc1OCCCCCOc1ccc(C2=NCCN2)cc1 [Imidazoline, 1,5-di(4-imidazolinophenoxy)pentane] |  |  |  |  |  |  | blocked IL-1 in a dose related manner | No effect | ability to block IL-1 | 46 ± 19 | ability to block IL-1 and tumor necrosis factor | blocks the secretion of IL-1 in a similar manner to pentamidine | less toxic to the cell | > 100
